In ChEMBL document CHEMBL4390668, “Discovery and Structural Optimization of Acridones as Broad-Spectrum Antimalarials” (J Med Chem, 2019):
The source made the active and inactive calls. No cut-off for these calls is given here.

Legend:
[1] = biological target: hERG (KCNH2) (Homo sapiens, UniProt Q12809); assay: Inhibition of human ERG expressed in CHOK1 cells at 10 uM by automated patch clamp method relative to control; type: cell-based; conditions: CHO-K1 cells that express hERG
[2] = system: Plasmodium falciparum; assay: Antimalarial activity against atovaquone-resistant Plasmodium falciparum Tm90-C2B infected in human erythrocytes by SYBR green 1-based fluorescence assay; type: functional, organism-based
[3] = system: Plasmodium berghei; assay: Antimalarial activity against luciferase-expressing Plasmodium berghei ANKA 676m1cl1 sporozoites infected in human HepG2A16 cells measured after 45 hrs by luciferase-luciferin based reporter assay; type: functional, organism-based; conditions: ANKA 676m1cl1, HepG2A16, 45 h
[4] = Mutagenicity in Salmonella typhimurium TA98 assessed as increase in revertant colonies up to 10 uM in absence of S9 fraction by Ames test; type: toxicity; conditions: salmonella enterica subsp. enterica serovar typhimurium
[5] = system: HepG2; assay: Cytotoxicity against human HepG2 cells measured after 24 to 36 hrs by resazurin dye based fluorescence assay; type: cell-based
[6] = Half life in mouse liver microsomes at 1 uM by LC-MS analysis; type: ADME, Microsome
[7] = Mutagenicity in Salmonella typhimurium TA100 assessed as increase in revertant colonies up to 10 uM in absence of S9 fraction by Ames test; type: toxicity; conditions: salmonella enterica subsp. enterica serovar typhimurium
[8] = system: Plasmodium falciparum; assay: Antimalarial activity against multidrug-resistant Plasmodium falciparum Dd2 infected in human erythrocytes by SYBR green 1-based fluorescence assay; type: functional, organism-based
[9] = Mutagenicity in Salmonella typhimurium TA100 assessed as increase in revertant colonies up to 10 uM in presence of S9 fraction by Ames test; type: toxicity, subcellular; conditions: salmonella enterica subsp. enterica serovar typhimurium
[10] = system: Plasmodium falciparum; assay: Antimalarial activity against chloroquine-sensitive Plasmodium falciparum D6 infected in human erythrocytes by SYBR green 1-based fluorescence assay; type: functional, organism-based
[11] = system: Plasmodium yoelii; assay: Antimalarial activity against blood stage Plasmodium yoelii MR4 MRA-428 infected in CF1 mouse assessed as suppression of parasitemia administered once daily via oral gavage for 4 days starting from 24 hrs post-infection and measured post-last dose by Giemsa-staining based microscopic analysis; type: functional
[12] = Mutagenicity in Salmonella typhimurium TA98 assessed as increase in revertant colonies up to 10 uM in presence of S9 fraction by Ames test; type: toxicity, subcellular; conditions: salmonella enterica subsp. enterica serovar typhimurium
[13] = Selectivity index, ratio of IC50 for human HepG2 cells to IC50 for chloroquine-sensitive Plasmodium falciparum D6 infected in human erythrocytes; type: toxicity, cell-based; conditions: read-out: Ratio IC50
[14] = system: Plasmodium falciparum; assay: Antimalarial activity against multidrug-resistant Plasmodium falciparum 7G8 infected in human erythrocytes by SYBR green 1-based fluorescence assay; type: functional, organism-based
[15] = Half life in human liver microsomes at 1 uM by LC-MS analysis; type: ADME, Microsome
[16] = system: Plasmodium falciparum; assay: Antimalarial activity against drug-resistant Plasmodium falciparum Dd2 harboring V259L mutant infected in human erythrocytes after 72 hrs by SYBR green 1-based fluorescence assay; type: functional, organism-based; conditions: Dd2, 72 h
[17] = system: Plasmodium falciparum; assay: Inhibition of Plasmodium falciparum cytochrome b-c1
[18] = system: Plasmodium falciparum; assay: Antimalarial activity against Plasmodium falciparum 3D7 infected in human erythrocytes after 72 hrs by SYBR green 1-based fluorescence assay; type: functional, organism-based; conditions: 3D7, 72 h
[19] = system: Plasmodium falciparum; assay: Antimalarial activity against drug-resistant Plasmodium falciparum 3D7 harboring A82T/V259L double mutant infected in human erythrocytes after 72 hrs by SYBR green 1-based fluorescence assay; type: functional, organism-based; conditions: 3D7, 72 h
[20] = system: Plasmodium falciparum; assay: Antimalarial activity against drug-resistant Plasmodium falciparum Dd2 harboring M133I/A138T double mutant infected in human erythrocytes after 72 hrs by SYBR green 1-based fluorescence assay; type: functional, organism-based; conditions: Dd2, 72 h
[21] = system: Plasmodium falciparum; assay: Antimalarial activity against drug-resistant Plasmodium falciparum Dd2 harboring M133I mutant infected in human erythrocytes after 72 hrs by SYBR green 1-based fluorescence assay; type: functional, organism-based; conditions: Dd2, 72 h

Chain of hERG (KCNH2) (Q12809 whole entry): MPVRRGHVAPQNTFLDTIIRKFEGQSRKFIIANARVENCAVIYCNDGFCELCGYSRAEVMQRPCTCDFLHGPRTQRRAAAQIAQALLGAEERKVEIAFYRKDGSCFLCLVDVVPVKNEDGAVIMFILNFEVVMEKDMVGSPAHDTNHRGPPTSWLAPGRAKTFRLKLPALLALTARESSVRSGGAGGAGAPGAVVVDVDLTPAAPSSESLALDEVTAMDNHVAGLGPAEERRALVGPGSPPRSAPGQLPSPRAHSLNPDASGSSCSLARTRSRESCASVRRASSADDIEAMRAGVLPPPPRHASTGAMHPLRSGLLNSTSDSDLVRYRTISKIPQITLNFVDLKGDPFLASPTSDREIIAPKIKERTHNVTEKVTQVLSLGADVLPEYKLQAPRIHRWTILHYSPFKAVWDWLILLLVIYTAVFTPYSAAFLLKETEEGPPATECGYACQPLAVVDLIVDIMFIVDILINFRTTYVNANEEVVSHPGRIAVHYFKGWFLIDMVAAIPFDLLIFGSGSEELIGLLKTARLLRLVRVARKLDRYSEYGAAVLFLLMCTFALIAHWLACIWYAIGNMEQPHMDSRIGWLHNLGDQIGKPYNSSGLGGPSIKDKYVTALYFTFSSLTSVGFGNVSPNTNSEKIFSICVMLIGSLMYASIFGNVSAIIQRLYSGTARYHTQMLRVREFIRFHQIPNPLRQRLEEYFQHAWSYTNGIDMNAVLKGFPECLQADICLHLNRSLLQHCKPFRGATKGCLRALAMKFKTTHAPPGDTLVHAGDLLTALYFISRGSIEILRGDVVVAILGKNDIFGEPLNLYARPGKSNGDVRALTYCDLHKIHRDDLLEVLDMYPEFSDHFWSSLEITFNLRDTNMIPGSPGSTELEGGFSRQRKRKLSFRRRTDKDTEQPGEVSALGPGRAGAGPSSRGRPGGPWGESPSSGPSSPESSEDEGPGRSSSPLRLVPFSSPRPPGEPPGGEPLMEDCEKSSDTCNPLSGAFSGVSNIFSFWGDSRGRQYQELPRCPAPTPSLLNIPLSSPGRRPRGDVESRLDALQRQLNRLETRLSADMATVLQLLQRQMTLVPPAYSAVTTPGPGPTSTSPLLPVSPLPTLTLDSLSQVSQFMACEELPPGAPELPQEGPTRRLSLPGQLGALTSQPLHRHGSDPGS

| SMILES | IC50 [2] | IC50 [3] | IC50 [5] | half-life at 1 µM [6] | IC50 [8] | IC50 [10] | selectivity ratio [13] | IC50 [14] | half-life at 1 µM [15] | IC50 [16] | inhibition [17] | also measured |
| --- | --- | --- | --- | --- | --- | --- | --- | --- | --- | --- | --- | --- |
| CCN(CC)CCCOc1ccc2c(=O)c3c(Cl)cc(Cl)cc3[nH]c2c1 | 228 nM | 138 nM | 130000 nM | 16 min | 45 nM | 19 nM | 6840 | 114 nM | 9 min |  |  | inhibition at 10 µM [1]: 59%; Activity [4]: Non-Toxic; Activity [7]: Non-Toxic; Activity [9]: Non-Toxic; ED50 [11]: 0.43 mg/kg.day; ED90 [11]: 24.1 mg/kg.day; Activity [12]: Non-Toxic |
| O=c1c2ccc(OCCCl)cc2[nH]c2ccc(Cl)c(Cl)c12 | 1380 nM | 183 nM | > 100000 nM | > 60 min | 27 nM | 2.5 nM | > 40000 | 45 nM | > 60 min |  |  |  |
| O=c1c2ccc(OCCCCl)cc2[nH]c2cc(Cl)cc(Cl)c12 | 70 nM | 523 nM | > 100000 nM | 55 min | 2.9 nM | 2.2 nM | > 45500 | 6.6 nM | > 60 min |  |  |  |
| CCN(CC)CCOc1ccc2c(=O)c3ccc(Br)cc3[nH]c2c1 | 968 nM | 100 nM | > 40000 nM | > 60 min | 34 nM | 25 nM | > 1600 | 37 nM | > 60 min |  |  |  |
| O=c1c2ccc(OCCN(CCC(F)(F)F)CCC(F)(F)F)cc2[nH]c2cc(F)cc(F)c12 | 2 nM | 0.09 nM | > 100000 nM | 33 min | 0.015 nM | 0.002 nM | > 100000 | 0.016 nM | 20 min |  |  | inhibition at 10 µM [1]: 17%; Activity [4]: Non-Toxic; Activity [7]: Non-Toxic; Activity [9]: Non-Toxic; ED50 [11]: 0.66 mg/kg.day; ED90 [11]: 2.53 mg/kg.day; Activity [12]: Non-Toxic |
| CCCN(CCC)CCOc1ccc2c(=O)c3cc(Cl)ccc3[nH]c2c1 | 317 nM | 12.5 nM | > 100000 nM | 16 min | 15 nM | 3.6 nM | > 27800 | 9.2 nM | 12 min |  |  |  |
| CC(C)(C)NCCCCOc1ccc2c(=O)c3c(F)cc(F)cc3[nH]c2c1 | > 2500 nM | 362 nM | 101000 nM | > 60 min | 265 nM | 75 nM | 1350 | 14 nM | > 60 min |  |  |  |
| O=c1c2ccc(OCCNC34CC5CC(CC(C5)C3)C4)cc2[nH]c2ccc(Cl)c(Cl)c12 | 163 nM | 86 nM | 10000 nM |  | 77 to 390 nM | 30 nM | 333 | 176 nM |  | 1100 nM | inactive |  |
| CCN(CC)CCOc1ccc2c(=O)c3ccc(F)cc3[nH]c2c1 | 1670 nM | 119 nM | 47900 nM | > 60 min | 485 nM | 377 nM | 127 | 353 nM | > 60 min |  |  |  |
| CCN(CC)CCCC(C)Nc1ccnc2cc(Cl)ccc12 (stereo not drawn) [CHLOROQUINE] |  |  |  |  |  |  |  |  |  | 260 nM | inactive |  |
| CCCN(CCC)CCOc1ccc2c(=O)c3c(Cl)cc(Cl)cc3[nH]c2c1 | 153 nM | 3.7 nM |  | > 60 min | 0.003 nM |  |  | 0.006 nM | > 60 min |  |  | inhibition at 10 µM [1]: 38%; Activity [4]: Non-Toxic; Activity [7]: Non-Toxic; Activity [9]: Non-Toxic; ED50 [11]: 0.21 mg/kg.day; ED90 [11]: 3.54 mg/kg.day; Activity [12]: Non-Toxic |
| CCN(CC)CCOc1ccc2c(=O)c3c(Cl)cc(Cl)cc3[nH]c2c1 | 465 nM |  | 13400 nM |  | 22 to 31 nM | 8.2 nM | 1630 | 21 nM |  | 668 nM | inactive | IC50 [18]: 16 nM; IC50 [19]: 612 nM; IC50 [20]: 1080 nM; ED50 [11]: 3.09 mg/kg.day; ED90 [11]: 50.2 mg/kg.day |
| CCN(CC)CCCOc1ccc2c(=O)c3ccc(Cl)cc3[nH]c2c1 | 1890 nM | 436 nM | 19700 nM | 34 min | 254 nM | 272 nM | 72 | 294 nM | > 60 min |  |  |  |
| CCCN(CCC)CCOc1ccc2c(=O)c3c(Cl)cc(OC)cc3[nH]c2c1 | 81 nM | 2.9 nM | > 200000 nM | 10 min | 4.2 nM | 0.65 nM | > 308000 | 6.2 nM | 7 min |  |  |  |
| CCN(CC)CCOc1ccc2c(=O)c3c(F)cc(F)cc3[nH]c2c1 | 1980 nM |  | 77600 nM |  | 16 to 20 nM | 7.8 nM | 9950 | 12 nM |  | 525 nM | inactive | IC50 [18]: 15 nM; IC50 [19]: 1150 nM; IC50 [20]: 60 nM; ED50 [11]: 1.62 mg/kg.day; ED90 [11]: 9.91 mg/kg.day |
| CN1CCCC1CCOc1ccc2c(=O)c3c(Cl)c(Cl)ccc3[nH]c2c1 (stereo not drawn) | 368 nM |  | 47600 nM |  | 172 to 616 nM | 48 nM | 992 | 440 nM |  | 3110 nM | inactive |  |
| O=C1C(O)=C([C@H]2CC[C@H](c3ccc(Cl)cc3)CC2)C(=O)c2ccccc21 [ATOVAQUONE] |  |  |  |  |  |  |  |  |  | 4.1 nM | inactive | IC50 [18]: 0.5 nM; IC50 [19]: 1.9 nM; IC50 [21]: 6.9 nM |
| O=c1c2ccc(OCCCCl)cc2[nH]c2ccc(Cl)c(Cl)c12 | 1040 nM |  | > 100000 nM |  | 17 to 22 nM | 3.2 nM | > 31200 | 3.1 nM |  | 551 nM | inactive | IC50 [18]: 11.1 nM; IC50 [19]: 605 nM; IC50 [20]: 324 nM |
| CC(C)(C)NCCOc1ccc2c(=O)c3c(Cl)c(Cl)ccc3[nH]c2c1 | > 2500 nM |  | 38400 nM |  | 139 to 679 nM | 106 nM | 362 | 295 nM |  | 3070 nM | inactive |  |
| O[C@@H](c1cc(C(F)(F)F)nc2c(C(F)(F)F)cccc12)[C@H]1CCCCN1 [(S,R)-MEFLOQUINE] |  |  |  |  | 18 nM |  |  |  |  | 23 nM | inactive | IC50 [20]: 13 nM; IC50 [21]: 14 nM |
| O=c1c2ccc(OCCCCCl)cc2[nH]c2cc(F)cc(F)c12 | 40 nM | 17 nM | > 100000 nM | 6 min | 0.16 nM | 0.12 nM | > 100000 | 0.5 nM | 14 min |  |  |  |
| C=C[C@H]1CN2CC[C@H]1C[C@H]2[C@H](O)c1ccnc2ccc(OC)cc12 [QUININE] |  |  |  |  | 254 nM |  |  |  |  | 215 nM | inactive | IC50 [20]: 199 nM; IC50 [21]: 197 nM |
| CCN(CC)CCOc1ccc2[nH]c3cc(Cl)ccc3c(=O)c2c1 | 97 nM | 793 nM | 30000 nM | 34 min | 132 to 366 nM | 110 nM | 272 | 81 nM | > 60 min | 355 nM | inactive | IC50 [18]: 262 nM; IC50 [19]: 284 nM; IC50 [20]: 340 nM |
| CCN(CC)CCCC(C)Nc1c2ccc(Cl)cc2nc2ccc(OC)cc12 (stereo not drawn) [QUINACRINE] |  |  |  |  | 29 nM |  |  |  |  | 18 nM | inactive | IC50 [20]: 29 nM; IC50 [21]: 23 nM |
| CCCCCCOc1ccc2c(=O)c3c(F)cc(F)cc3[nH]c2c1 | 5.4 nM | 72 nM | > 100000 nM |  | 0.041 nM | 0.026 nM | > 100000 | 0.05 nM |  |  |  | inhibition at 10 µM [1]: 20%; Activity [4]: Non-Toxic; Activity [7]: Non-Toxic; Activity [9]: Non-Toxic; ED50 [11]: 1.09 mg/kg.day; ED90 [11]: 12.7 mg/kg.day; Activity [12]: Non-Toxic |
